In US20200038513A1, “MODULATORS OF FAK PROTEOLYSIS AND ASSOCIATED METHODS OF USE” (ARVINAS OPERATIONS, INC., priority 2018, published 2020):
Blank lines part the entries; values can stand above or below the compound they belong to.

Experiments:
[1] = molecular target: Fak (Homo sapiens, UniProt Q05397); assay: Fak degradation, immunoblotting in PC3 cells; assay type: cell-based; conditions: 24 hour treatment; for Dmax: PC-3, degradation maximum, n = 3
Method: PC3 cells were cultured in F12-K (Kaighn's Modification of Ham's F-12 Medium), supplemented with 10% fetal bovine serum (FBS) and 1% penicillin-streptomycin at 37° C. and 5% CO2.
If not indicated otherwise, cells were seeded and grown to 80% confluency and were treated with compound or control for 24 hours. […] After 20 minutes the mixture was spun down at 16,000×g for 10 minutes at 4° C. to pellet insoluble materials. Protein concentration of supernatants were determined via BCA assay (Thermo Fisher) before addition of NuPAGE sample buffer containing 5% β-Me and boiling at 95° C. for 10 minutes. Equal amounts of protein were subjected to SDS-PAGE and subsequent electrophoretic transfer onto nitrocellulose membrane. […] Immunoblots were developed using enhanced chemiluminescence and visualized using a Bio-Rad Chemi-Doc MP Imaging System and quantitated with Image Lab v.5.2.1 software (Bio-Rad Laboratories). Data analysis and statistics was performed using Prism 7.0 (GraphPad).
Examination of Target Protein (Fak) Degradation.

[2] = system: p-Fak(Y397); assay: Fak activation, western blot in PC3 cells; assay type: cell-based, human; conditions: serum deprived PC3 cells, 24 h
Method: (§1) If not indicated otherwise, cells were seeded and grown to 80% confluency and were treated with compound or control for 24 hours. Subsequently, the growth media was removed and the cells lysed by the addition of lysis buffer (25 mM Tris, pH 7.4; 1% NP-40, 0.25% deoxycholate, 1 mM sodium vanadate, 10 mM sodium fluoride, 10 mM sodium pyrophosphate, 20 mM β-glycerophosphate and 1× complete EDTA-free protease inhibitor cocktail (Roche)). After 20 minutes the mixture was spun down at 16,000×g for 10 minutes at 4° C. to pellet insoluble materials. Protein concentration of supernatants were determined via BCA assay (Thermo Fisher) before addition of NuPAGE sample buffer containing 5% β-Me and boiling at 95° C. for 10 minutes. Equal amounts of protein were subjected to SDS-PAGE and subsequent electrophoretic transfer onto nitrocellulose membrane. Rabbit antibodies were purchased from Cell Signaling: Fak (3285), p-Fak (3283), p-Paxillin (2541), p-Akt (S473)(4060), GAPDH (2118), Androgen Receptor (5153), p-Src(Y527)(2105), p-S6RP (2215). Mouse antibodies were purchased from Cell Signaling: tubulin (3873), S6RP (2317). Secondary antibody ∝-rabbit (31460) or ∝-mouse (31444) was coupled to horseradish peroxidase and purchased from Thermo Fisher. Immunoblots were developed using enhanced chemiluminescence and visualized using a Bio-Rad Chemi-Doc MP Imaging System and quantitated with Image Lab v.5.2.1 software (Bio-Rad Laboratories). Data analysis and statistics was performed using Prism 7.0 (GraphPad).
Fak levels are undetectable at concentrations of 100 nM through 1 μM of exemplary compound 102, and slightly rebound at concentrations of 5 μM (10%) and 10 μM (27%) due to an observed hook effect. […] Paxillin, a downstream target of the Fak-Src complex, has been associated with cell migration. […] Akt is a kinase that is tied to the Fak signaling cascade via PI3K, but can be activated through other pathways as well. […] A maximum p-Akt suppression of 93% is observed at 1 μM of exemplary compound 102. […]

[3] = system: p-Akt (S473); assay: Fak downstream signaling, western blot in PC3 cells; assay type: cell-based, human; conditions: serum deprived PC3 cells, 24 h
Method: as §1
(§2) Fak levels are undetectable at concentrations of 100 nM through 1 μM of exemplary compound 102, and slightly rebound at concentrations of 5 μM (10%) and 10 μM (27%) due to an observed hook effect. […] Paxillin, a downstream target of the Fak-Src complex, has been associated with cell migration. […] Akt is a kinase that is tied to the Fak signaling cascade via PI3K, but can be activated through other pathways as well. […] A maximum p-Akt suppression of 93% is observed at 1 μM of exemplary compound 102. […] A similar differential can be observed when exemplary compound 102 is compared to its non-degrading diastereomer exemplary compound 106 (FIGS. 9A-9F and 10A-10D). These differences are the result of the distinct MOA Fak degraders are able to provide compared to inhibitors.

[4] = system: p-paxillin; assay: as above; assay type: cell-based, human; conditions: serum deprived PC3 cells, 24 h
Method: as §1, §2

[5] = system: MDA-MB-231 cells; assay: Transwell invasion assay; assay type: cell-based, human; conditions: 100 nM, 24 hours
Method: On the first day, 0.2× Basement Membrane Extract (BME) working solution was prepared by diluting 5×BME stock solution in 1× Travigen Inc. coating buffer. Briefly, 100 μL of 10× coating buffer was diluted in 900 μL of sterile water to make 1× coating buffer. Then 960 μL of 1× coating buffer was mixed with 40 μL of 5×BME to make working 0.2×BME solution. Corning Transwell permeable inserts (Costar Transwell chambers, Corning) were placed on a 24-well plate and 100 μL of 0.2×BME solution was added to each Transwell insert and incubated for 16 hours. Following day, MDA-MB-231 cells were trypsinized and cells were suspended in serum free medium. Approximately 100 μL from cell suspension (˜3×10^5 cells) was added to each Transwell insert followed by another 100 μL of exemplary compound or control containing serum free RPMI medium. The lower chamber was filled with 10% FBS containing RPMI medium and the whole setup was incubated at 37° C. 1-5% CO2 for 24 hours. After 24 hours, cell culture medium was removed from both lower and upper chambers and Transwell inserts were washed three times with PBS. […] Images were then analyzed by ImageJ software and number of cells on the bottom side of the membrane were counted and presented as a bar graph using Prism 7.0 (GraphPad). Differences among groups were analyzed by Welch's t-test and considered significant when P<0.05. […]

[6] = system: androgen receptor (AR); assay: Western blot validation of RPPA results in MDA-MB-231 cells; assay type: cell-based, human; conditions: 10% FBS, varying concentrations
Method: as §1
(§3) It has been previously shown that extranuclear AR is involved in cell migration and forms a multiprotein complex comprised of filamin A/β-1 integrin/Fak/AR in NIH3T3 fibroblasts that facilitates Fak activation. […] Phosphorylation of S6RP occurs via the Src-Fak-PI3K pathway and p-S6RP is required for the initiation of translation in response to cell growth and proliferation.

[7] = system: p-Akt(S473); assay: as above; assay type: cell-based, human; conditions: 10% FBS, varying concentrations
Method: as §1, §3

[8] = system: p-S6RP(S240/S244); assay: as above; assay type: cell-based, human; conditions: 10% FBS, varying concentrations
Method: as §1, §3

[9] = system: p-Src(Y527); assay: as above; assay type: cell-based, human; conditions: 10% FBS, varying concentrations
Method: as §1, §3

Fak, sequence (Q05397 whole entry): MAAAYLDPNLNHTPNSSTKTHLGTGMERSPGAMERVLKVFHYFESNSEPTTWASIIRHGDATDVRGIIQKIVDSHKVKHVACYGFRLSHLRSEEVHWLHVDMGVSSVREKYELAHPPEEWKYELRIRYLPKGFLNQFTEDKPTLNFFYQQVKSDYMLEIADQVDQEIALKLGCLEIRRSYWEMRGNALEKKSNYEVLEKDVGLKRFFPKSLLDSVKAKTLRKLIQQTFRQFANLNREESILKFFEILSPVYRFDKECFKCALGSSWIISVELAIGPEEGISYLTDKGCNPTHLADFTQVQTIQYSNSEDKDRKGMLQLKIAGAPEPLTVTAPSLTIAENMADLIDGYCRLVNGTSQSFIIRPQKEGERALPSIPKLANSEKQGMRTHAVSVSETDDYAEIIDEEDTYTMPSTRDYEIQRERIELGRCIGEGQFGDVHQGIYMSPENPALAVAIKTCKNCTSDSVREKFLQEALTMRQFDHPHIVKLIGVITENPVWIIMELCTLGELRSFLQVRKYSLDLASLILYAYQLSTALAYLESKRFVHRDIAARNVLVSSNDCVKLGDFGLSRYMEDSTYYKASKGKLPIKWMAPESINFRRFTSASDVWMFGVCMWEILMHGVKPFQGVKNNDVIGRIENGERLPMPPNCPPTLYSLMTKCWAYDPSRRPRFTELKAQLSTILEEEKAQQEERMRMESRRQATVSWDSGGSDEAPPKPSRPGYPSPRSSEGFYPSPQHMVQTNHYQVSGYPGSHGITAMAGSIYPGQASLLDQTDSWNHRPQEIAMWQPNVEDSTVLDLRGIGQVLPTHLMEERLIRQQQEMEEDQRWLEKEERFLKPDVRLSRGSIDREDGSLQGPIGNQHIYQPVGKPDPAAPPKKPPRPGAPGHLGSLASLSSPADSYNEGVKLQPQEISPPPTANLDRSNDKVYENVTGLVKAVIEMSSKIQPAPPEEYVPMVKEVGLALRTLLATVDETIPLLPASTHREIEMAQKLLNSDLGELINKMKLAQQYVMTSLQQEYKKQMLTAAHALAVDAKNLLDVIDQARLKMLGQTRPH

SMILES: Cc1ncsc1-c1ccc(CNC(=O)[C@@H]2C[C@@H](O)CN2C(=O)[C@@H](NC(=O)CCOCCOc2ccc(Nc3ncc(C(F)(F)F)c(NCc4cccc(N(C)S(C)(=O)=O)c4)n3)cc2)C(C)(C)C)cc1 [Compound 102, (2S,4R)-1-((S)-3,3-dimethyl-2-(3-(2-(4-((4-((3-(N-methylmethylsulfonamido)benzyl)amino)-5-(trifluoromethyl)pyrimidin-2-yl)amino)phenoxy)ethoxy)propanamido)butanoyl)-4-hydroxy-N-(4-(4-methylthiazol-5-yl)benzyl)pyrrolidine-2-carboxamide]
- Dmax ([1]; PC3 cells): 99%
- DC50 ([1]; half-maximal degradation concentration, PC3 cells): 3.3 nM
- total Fak remaining ([1]; serum deprived PC3 cells, 10 nM): 34%
- total Fak remaining ([1]; serum deprived PC3 cells, 50 nM): 5%
- Fak levels ([1]; serum deprived PC3 cells, 100 nM through 1 μM): undetectable
- Fak levels (rebound, hook effect) ([1]; serum deprived PC3 cells, 5 μM): 10%
- Fak levels (rebound, hook effect) ([1]; serum deprived PC3 cells, 10 μM): 27%
- p-Fak levels ([2]; between 100 nM and 5 μM): less than 5%
- Fak activation (p-Fak(Y397)) compared to DMSO (in words) ([2]; increasing concentrations): significantly reduced
- maximum p-Akt suppression ([3]; 1 μM): 93%
- effect on p-Akt (S473) (in words) ([3]; increasing concentrations): significant at all treatment concentrations
- reduction of p-paxillin levels ([4]; above 50 nM): 85-90%
- reduction of cell invasion [5]: 65%
- AR levels (in words) [6]: reduction of AR levels
- p-Akt(S473) levels (in words) [7]: reduced levels of p-Akt(S473)
- phosphorylation of S6RP (in words) [8]: reduced phosphorylation
- p-Src(Y527) levels (in words) [9]: reduced levels

- Dmax ([1]; PC3 cells): 0%
SMILES: CNC(=O)c1ccc(Nc2ncc(C(F)(F)F)c(NCc3nccnc3N(C)S(C)(=O)=O)n2)cc1 [Defactinib, defactinib, reference compound]
- lowest level of p-Fak activity (remaining) ([2]; 10 μM): 26%
- maximum reduction of p-Akt ([3]; 10 μM): 88%
- maximum reduction of p-paxillin levels ([4]; 10 μM): 62%
- effect on cell invasion (in words) [5]: no significant effect
